Laboratory results as given in ChEMBL document CHEMBL1151537 (Bioorg Med Chem Lett, 1994).
pEC50: −log10 of the molar value. Each block holds one molecule with its values, some of them ahead of it.

How the values were obtained:
Melatonin receptor = Melatonin receptor (Gallus gallus, UniProt P49288+P51050+P49285); assay: Binding affinity towards melatonin receptor using 2-[125I]iodomelatonin as radioligand in chick brain membranes; format: cell membranes, Membrane
Xenopus laevis [1] = species on record: Xenopus laevis; assay: Agonistic activity was determined in a pigment aggregation model using cultured melanophores isolated from the neural crest of Xenopus laevis embryos; agonist; format: functional; settings: frog; filed as agonist
Xenopus laevis [2] = species on record: Xenopus laevis; assay: Agonistic activity was determined in a pigment aggregation model using cultured melanophores isolated from the neural crest of Xenopus laevis embryos; Partial; format: functional; settings: frog; filed as partial agonist
Xenopus laevis [3] = species on record: Xenopus laevis; assay: Agonistic activity was determined in a pigment aggregation model using cultured melanophores isolated from the neural crest of Xenopus laevis embryos; partial; format: functional; settings: frog; filed as partial agonist
Xenopus laevis [4] = species on record: Xenopus laevis; assay: Concentration producing half maximal aggregation of pigment granules in the centre of the melanophore isolated from the neural crest of Xenopus laevis embryos was determined; format: functional, frog
Xenopus laevis [5] = species on record: Xenopus laevis; assay: Agonistic activity was determined in a pigment aggregation model using cultured melanophores isolated from the neural crest of Xenopus laevis embryoss; agonist; format: functional; settings: frog; filed as agonist

Compound: CCCC(=O)NCCc1c(-c2ccccc2)[nH]c2ccccc12
Activity (Xenopus laevis [3]): Partial agonist

Compound: CCC(=O)NCCc1c(-c2ccccc2)[nH]c2ccccc12
Activity (Xenopus laevis [1]): Agonist
pEC50 (Xenopus laevis [4]): 7.30

Compound: CCCC(=O)NCCc1c(Br)[nH]c2cc(Br)ccc12
Ki (Melatonin receptor): 2.3 nM
Activity (Xenopus laevis [3]): Partial agonist

Compound: O=C(NCCc1c(-c2ccccc2)[nH]c2ccccc12)C(F)(F)F
Activity (Xenopus laevis [3]): Partial agonist

Compound: O=C(NCCc1c(Br)[nH]c2cc(Br)ccc12)C(F)(F)F
Ki (Melatonin receptor): 367 nM

Compound: CC(=O)NCCc1c(-c2ccccc2)[nH]c2ccccc12
pEC50 (Xenopus laevis [4]): 7.15
Activity (Xenopus laevis [5]): Agonist

Compound: COc1ccc2[nH]cc(CCNC(C)=O)c2c1
Activity (Xenopus laevis [1]): Agonist

Compound: CC(=O)NCCc1c[nH]c2ccccc12
Ki (Melatonin receptor): 701 nM

Second part, led by results:

Ki (Melatonin receptor): 27 nM
Compound: CCC(=O)NCCc1c(Br)[nH]c2cc(Br)ccc12

Ki (Melatonin receptor): 138 nM
Compound: CC(=O)NCCc1c(Br)[nH]c2ccccc12
Activity (Xenopus laevis [1]): Agonist

Ki (Melatonin receptor): 2600 nM
Compound: O=C(NCCc1c[nH]c2ccccc12)C1CC1

Ki (Melatonin receptor): 98 nM
Compound: CCCC(=O)NCCc1c[nH]c2ccccc12
Activity (Xenopus laevis [2]): Partial agonist

Ki (Melatonin receptor): 14 nM
Compound: O=C(CBr)NCCc1c(Br)[nH]c2ccccc12
Activity (Xenopus laevis [1]): Agonist

Ki (Melatonin receptor): 153 nM
Compound: O=C(CBr)NCCc1c[nH]c2ccccc12

Ki (Melatonin receptor): 377 nM
Compound: O=C(NCCc1c[nH]c2ccccc12)C(F)(F)F
Activity (Xenopus laevis [2]): Partial agonist

Ki (Melatonin receptor): 122 nM
Compound: CC(=O)NCCc1c(Br)[nH]c2cc(Br)ccc12
Activity (Xenopus laevis [3]): Partial agonist

Ki (Melatonin receptor): 398 nM
Compound: CCC(=O)NCCc1c[nH]c2ccccc12

Ki (Melatonin receptor): 138 nM
Compound: O=C(NCCc1c(Br)[nH]c2cc(Br)ccc12)C1CC1
Activity (Xenopus laevis [1]): Agonist
